Laboratory results as given in US12391721B2, “Crystal forms of beta-nicotinamide mononucleotide” (Metro International Biotech, LLC, priority 2015, dated 2025).

Key:
Format in all cases: physicochemical
[1] = Three month stability and forced degradation study: particle morphology by polarised light microscopy (PLM); settings: Replicate 1
Procedure: Samples were studied on a Leica LM/DM polarised light microscope with a digital video camera for image capture. A small amount of each sample was placed on a glass slide, 15 mounted in immersion oil and covered with a glass slip, the individual particles being separated as well as possible. The sample was viewed with appropriate magnification and partially polarised light, coupled to a λ false-color filter.
(§1) […] The samples were prepared in duplicate with an offset of 2 weeks. Each replicate was stored in a different container.
(§2) Replicate 1 was charged in an open HPLC vial that was placed in a sealed scintillation vial containing a saturated solution of the relevant inorganic salt (Table 2). These samples were analysed by HPLC, 1H NMR, XRPD and Polarized Light Microscopy (PLM) at 4, 8, and 12 week time points.

[2] = Three month stability and forced degradation study: visual observations of stored solids
Procedure: as §1, §2
(§3) Replicate 2 was stored in sealed box with a recipient containing a saturated solution of the relevant inorganic salt (Table 2). These samples were analysed by HPLC at 2, 6, 10 and 12 week time points. Samples at 25° C./0% RH were stored in a sealed box containing a desiccant agent (P2O5).

[3] = Three month stability and forced degradation study: HPLC purity of stored solids; settings: for Known Impurity* (%) (nicotinamide, RRT = 1.73 min) / Purity (%): HPLC
Procedure: Purity analysis was performed on an Agilent HP1100 series system equipped with a diode array detector and using ChemStation software vB.04.03 using the method detailed below in Table 1.
as §1, §2, §3

[4] = Three month stability and forced degradation study: solid form by XRPD after storage; settings: for XRPD: Replicate 1
Procedure: X-Ray Powder Diffraction patterns were collected on a Bruker D8 diffractometer using Cu Kα radiation (40 kV, 40 mA), θ-2θ goniometer, and divergence of V4 and receiving slits, a Ge monochromator and a Lynxeye detector. The instrument is performance checked using a certified Corundum standard (NIST 1976). The software used for data collection was Diffrac Plus XRD Commander v2.6.1 and the data were analysed and presented using Diffrac Plus EVA v15.0.0.0.
Samples were run under ambient conditions as flat plate specimens using powder as received. The sample was gently packed into a cavity cut into polished, zero-background (510) silicon wafer. The sample was rotated in its own plane during analysis. The details of the data collection are: • Angular range: 2 to 42° 2θ • Step size: 0.05° 2θ • Collection time: 0.5 s/step HPLC
as §1, §2

[5] = solid stored 25° C., 0% RH, 4 weeks
[6] = solid stored 25° C., 0% RH, 8 weeks
[7] = solid stored 25° C., 0% RH, 12 weeks
[8] = solid stored 25° C., 60% RH, 4 weeks
[9] = solid stored 25° C., 60% RH, 8 weeks
[10] = solid stored 25° C., 60% RH, 12 weeks
[11] = solid stored 25° C., 97% RH, 4 weeks
[12] = solid stored 25° C., 97% RH, 8 weeks
[13] = solid stored 25° C., 97% RH, 12 weeks
[14] = solid stored 40° C., 75% RH, 4 weeks
[15] = solid stored 40° C., 75% RH, 8 weeks
[16] = solid stored 40° C., 75% RH, 12 weeks
[17] = solid stored 25° C., 0% RH, 4 weeks, Replicate 1
[18] = solid stored 25° C., 0% RH, 8 weeks, Replicate 1
[19] = solid stored 25° C., 0% RH, 12 weeks, Replicate 1
[20] = solid stored 25° C., 60% RH, 2 weeks, Replicate 2
[21] = solid stored 25° C., 60% RH, 4 weeks, Replicate 1
[22] = solid stored 25° C., 60% RH, 6 weeks, Replicate 2
[23] = solid stored 25° C., 60% RH, 8 weeks, Replicate 1
[24] = solid stored 25° C., 60% RH, 10 weeks, Replicate 2
[25] = solid stored 25° C., 60% RH, 12 weeks, Replicate 1
[26] = solid stored 25° C., 60% RH, 12 weeks, Replicate 2
[27] = solid stored 25° C., 97% RH, 2 weeks, Replicate 2
[28] = solid stored 25° C., 97% RH, 4 weeks, Replicate 1
[29] = solid stored 25° C., 97% RH, 6 weeks, Replicate 2
[30] = solid stored 25° C., 97% RH, 8 weeks, Replicate 1
[31] = solid stored 25° C., 97% RH, 10 weeks, Replicate 2
[32] = solid stored 25° C., 97% RH, 12 weeks, Replicate 1
[33] = solid stored 25° C., 97% RH, 12 weeks, Replicate 2
[34] = solid stored 40° C., 75% RH, 2 weeks, Replicate 2
[35] = solid stored 40° C., 75% RH, 4 weeks, Replicate 1
[36] = solid stored 40° C., 75% RH, 6 weeks, Replicate 2
[37] = solid stored 40° C., 75% RH, 8 weeks, Replicate 1
[38] = solid stored 40° C., 75% RH, 10 weeks, Replicate 2
[39] = solid stored 40° C., 75% RH, 12 weeks, Replicate 1
[40] = solid stored 40° C., 75% RH, 12 weeks, Replicate 2
[41] = solid stored 25° C., 0% RH, 12 weeks, Replicate 1, listed as Crystalline Form 1
[42] = t = 0, baseline of the stability study, listed as RME-1304-063-01

PLM [1, 5]: acicular
PLM [1, 6]: acicular
PLM [1, 7]: acicular
PLM [1, 8]: acicular
PLM [1, 9]: acicular
PLM [1, 10]: acicular
PLM [1, 11]: acicular
PLM [1, 12]: acicular
PLM [1, 13]: acicular
PLM [1, 14]: acicular
PLM [1, 15]: acicular
PLM [1, 16]: acicular
Observations [2, 17]: white solid
Observations [2, 18]: white solid
Observations [2, 19]: white solid
Observations [2, 20]: white solid
Observations [2, 21]: light brown
Observations [2, 22]: light brown
Observations [2, 23]: light brown
Observations [2, 24]: light brown
Observations [2, 25]: light brown
Observations [2, 26]: light brown
Observations [2, 27]: white solid
Observations [2, 28]: white solid
Observations [2, 29]: white solid,
Observations [2, 30]: white solid
Observations [2, 31]: white solid, wet
Observations [2, 32]: white solid,
Observations [2, 33]: white solid, wet
Observations [2, 34]: white solid
Observations [2, 35]: white solid
Observations [2, 36]: white solid
Observations [2, 37]: white solid
Observations [2, 38]: light brown
Observations [2, 39]: brown solid,
Observations [2, 40]: light brown
chemical purity after storage ([3]; 4 weeks of storage at all the tested conditions): ~99.3%
Known Impurity* (%) (nicotinamide, RRT = 1.73 min) [3, 17]: 0.25%
Purity (%) [3, 17]: 99.4%
Known Impurity* (%) (nicotinamide, RRT = 1.73 min) [3, 18]: 0.33%
Purity (%) [3, 18]: 99.2%
Known Impurity* (%) (nicotinamide, RRT = 1.73 min) [3, 19]: 0.38%
Purity (%) [3, 19]: 98.9%
Known Impurity* (%) (nicotinamide, RRT = 1.73 min) [3, 41]: 0.38%
Purity (%) [3, 41]: 98.9%
Known Impurity* (%) (nicotinamide, RRT = 1.73 min) [3, 20]: 0.19%
Purity (%) [3, 20]: 99.6%
Known Impurity* (%) (nicotinamide, RRT = 1.73 min) [3, 21]: 0.34%
Purity (%) [3, 21]: 99.3%
Known Impurity* (%) (nicotinamide, RRT = 1.73 min) [3, 22]: 0.21%
Purity (%) [3, 22]: 99.5%
Known Impurity* (%) (nicotinamide, RRT = 1.73 min) [3, 23]: 0.63%
Purity (%) [3, 23]: 98.9%
Known Impurity* (%) (nicotinamide, RRT = 1.73 min) [3, 24]: 0.35%
Purity (%) [3, 24]: 99.1%
Known Impurity* (%) (nicotinamide, RRT = 1.73 min) [3, 25]: 0.98%
Purity (%) [3, 25]: 98.2%
Known Impurity* (%) (nicotinamide, RRT = 1.73 min) [3, 26]: 0.23%
Purity (%) [3, 26]: 98.8%
Known Impurity* (%) (nicotinamide, RRT = 1.73 min) [3, 27]: 0.22%
Purity (%) [3, 27]: 99.5%
Known Impurity* (%) (nicotinamide, RRT = 1.73 min) [3, 28]: 0.49%
Purity (%) [3, 28]: 99.3%
Known Impurity* (%) (nicotinamide, RRT = 1.73 min) [3, 29]: 0.38%
Purity (%) [3, 29]: 99.4%
Known Impurity* (%) (nicotinamide, RRT = 1.73 min) [3, 30]: 1.38%
Purity (%) [3, 30]: 98.3%
Known Impurity* (%) (nicotinamide, RRT = 1.73 min) [3, 31]: 0.77%
Purity (%) [3, 31]: 98.6%
Known Impurity* (%) (nicotinamide, RRT = 1.73 min) [3, 32]: 3.46%
Purity (%) [3, 32]: ~95.8^$ %
Purity (%) ([3]; solid stored 25° C., 97% RH, 12 weeks, Replicate 1, listed as Crystalline Form 1): 95.8%
Known Impurity* (%) (nicotinamide, RRT = 1.73 min) [3, 33]: 0.55%
Purity (%) [3, 33]: 98.4%
Known Impurity* (%) (nicotinamide, RRT = 1.73 min) [3, 34]: 0.22%
Purity (%) [3, 34]: 99.5%
Known Impurity* (%) (nicotinamide, RRT = 1.73 min) [3, 35]: 0.46%
Purity (%) [3, 35]: 99.2%
Known Impurity* (%) (nicotinamide, RRT = 1.73 min) [3, 36]: 0.27%
Purity (%) [3, 36]: 99.4%
Known Impurity* (%) (nicotinamide, RRT = 1.73 min) [3, 37]: 1.38%
Purity (%) [3, 37]: 97.7%
Known Impurity* (%) (nicotinamide, RRT = 1.73 min) [3, 38]: 0.49%
Purity (%) [3, 38]: 98.8%
Known Impurity* (%) (nicotinamide, RRT = 1.73 min) [3, 39]: 3.46%
Purity (%) [3, 39]: 90.7%
Known Impurity* (%) (nicotinamide, RRT = 1.73 min) [3, 40]: 0.77%
Purity (%) [3, 40]: 97.4%
HPLC purity profile, Area % of main peak (RRT 1.00) [3, 42]: 99.52 Area %
HPLC purity profile, Area % of peak at RRT 1.76 / 1.74 (nicotinamide) [3, 42]: 0.12 Area %
nicotinamide impurity ([3]; time 0): 0.12%
Purity ([3]; time 0, listed as Crystalline Form 1): 99.5%
solid form and particle morphology after storage ([4]; all conditions tested): remained unchanged
XRPD [4, 5]: Unchanged
XRPD [4, 6]: Unchanged
XRPD [4, 7]: Unchanged
XRPD [4, 8]: Unchanged
XRPD [4, 9]: Unchanged
XRPD [4, 10]: Unchanged
XRPD [4, 11]: Unchanged
XRPD [4, 12]: Unchanged
XRPD [4, 13]: Unchanged
XRPD [4, 14]: Unchanged
XRPD [4, 15]: Unchanged
XRPD [4, 16]: Unchanged
Compound: NC(=O)c1ccc[n+]([C@@H]2O[C@H](COP(=O)([O-])O)[C@@H](O)[C@H]2O)c1 [RME-1304-63-01, β-nicotinamide mononucleotide]
